Reference: US10493060B2, “Spirocyclic compounds” (ZENO ROYALTIES & MILESTONES, LLC, priority 2015, dated 2019)

Assays:
Activated ERK2 = Activated ERK2 (Homo sapiens (Human), UniProt P28482); test: Active ERK2 kinase assay (Mobility Shift Assay); type: biochemical
Experimental: (§1) Activated ERK1 and ERK2 activity was determined in a Mobility Shift Assay (MSA) format as follows: Compound and kinase solution were prepared with assay buffer (20 mM HEPES, 0.01% Triton X-100, 2 mM DTT, pH7.5) and mixed and incubated in for 30 mins at rt. ERK1 & ERK2 were then activated by the addition of Fl-Substrate, ATP and metal solution and incubated for 1 h at rt. After 1 h, the reaction was terminated by the addition of […] of Termination Buffer (QuickScout Screening Assist MSA; Carna Biosciences) to the well. The reaction mixture was applied to LabChip™ system (PerkinElmer), and the product and substrate peptide peaks were separated, analyzed and quantitated. The kinase reaction is evaluated by the product ratio calculated from peak heights of product (P) and substrate (S) peptides (P/(P+S)).

Activated ERK1 = Activated ERK1 (Homo sapiens (Human), UniProt P27361); test: Active ERK1 kinase assay (Mobility Shift Assay); type: biochemical
Chain of Activated ERK1 (P27361 whole entry): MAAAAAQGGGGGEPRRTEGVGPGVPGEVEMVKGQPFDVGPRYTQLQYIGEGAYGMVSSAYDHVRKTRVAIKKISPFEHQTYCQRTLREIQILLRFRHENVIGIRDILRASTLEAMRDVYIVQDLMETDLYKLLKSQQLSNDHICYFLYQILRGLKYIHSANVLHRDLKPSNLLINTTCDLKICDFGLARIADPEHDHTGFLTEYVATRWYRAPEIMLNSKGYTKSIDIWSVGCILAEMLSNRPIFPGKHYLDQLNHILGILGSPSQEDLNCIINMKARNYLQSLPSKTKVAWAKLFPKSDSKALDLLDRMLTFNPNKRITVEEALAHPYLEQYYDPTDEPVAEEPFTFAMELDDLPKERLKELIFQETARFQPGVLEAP
Experimental: as §1

Chain of Activated ERK2 (P28482 whole entry): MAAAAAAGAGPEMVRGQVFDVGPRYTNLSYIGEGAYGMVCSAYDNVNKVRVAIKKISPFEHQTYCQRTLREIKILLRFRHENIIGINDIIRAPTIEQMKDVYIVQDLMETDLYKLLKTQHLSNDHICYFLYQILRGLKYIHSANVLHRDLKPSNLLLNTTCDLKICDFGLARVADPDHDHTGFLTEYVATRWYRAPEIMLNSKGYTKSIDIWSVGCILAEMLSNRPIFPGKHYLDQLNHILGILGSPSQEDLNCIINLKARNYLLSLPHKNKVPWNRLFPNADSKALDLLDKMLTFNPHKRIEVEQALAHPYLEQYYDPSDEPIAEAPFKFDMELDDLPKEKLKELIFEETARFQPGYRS

| Compound | IC50 (Activated ERK2) [nM] | IC50 (Activated ERK1) [nM] |
| --- | --- | --- |
| CC(C)Oc1ccc(-c2n[nH]c3ccc(N4CCC5(CCN(CC(=O)N6CC=C(c7ccc(-c8ncn(C)n8)cc7)CC6)C5)C4)cc23)cn1 (stereo not drawn) [Example 4, 2-(7-(3-(6-Isopropoxypyridin-3-yl)-1H-indazol-5-yl)-2,7-diazaspiro[4.4]nonan-2-yl)-1-(4-(4-(1-methyl-1H-1,2,4-triazol-3-yl)phenyl)-3,6-dihydropyridin-1(2H)-yl)ethan-1-one] | ≥ 250 | ≥ 250 |
| Cc1ccc(-c2n[nH]c3ccc(N4CC[C@]5(CCN(CC(=O)N6CC=C(c7ccc(-c8ncn(C)n8)cc7)CC6)C5)C4=O)cc23)cn1 [Example 57, (S)-7-(2-(4-(4-(1-Methyl-1H-1,2,4-triazol-3-yl)phenyl)-3,6-dihydropyridin-1(2H)-yl)-2-oxoethyl)-2-(3-(6-methylpyridin-3-yl)-1H-indazol-5-yl)-2,7-diazaspiro[4.4]nonan-1-one] | ≤ 50 | – |
| Cn1cc(-c2n[nH]c3ccc(N4CC[C@]5(CCN(CC(=O)N6CC=C(c7ccc(-c8ncn(C)n8)cc7)CC6)C5)C4=O)cc23)cn1 [Example 48, (S)-7-(2-(4-(4-(1-Methyl-1H-1,2,4-triazol-3-yl)phenyl)-3,6-dihydropyridin-1 (2H)-yl)-2-oxoethyl)-2-(3-(1-methyl-1H-pyrazol-4-yl)-1H-indazol-5-yl)-2,7-diazaspiro[4.4]nonan-1-one] | ≤ 50 | – |
| Cn1cnc(-c2ccc(C3=CCN(C(=O)CN4CC[C@]5(CCN(c6ccc7[nH]nc(C8CC8)c7c6)C5=O)C4)CC3)cc2)n1 [Example 45, (S)-2-(3-Cyclopropyl-1H-indazol-5-yl)-7-(2-(4-(4-(1-methyl-1H-1,2,4-triazol-3-yl)phenyl)-3,6-dihydropyridin-1(2H)-yl)-2-oxoethyl)-2,7-diazaspiro[4.4]nonan-1-one] | ≤ 50 | – |
| CC(C)Oc1ccc(-c2n[nH]c3ccc(N4CC[C@]5(CCN(CC(=O)N6CC=C(c7ccc(-c8ncn(C9CC9)n8)cc7)CC6)C5)C4=O)cc23)cn1 [Example 50, (S)-7-(2-(4-(4-(1-Cyclopropyl-1H-1,2,4-triazol-3-yl)phenyl)-3,6-dihydropyridin-1(2H)-yl)-2-oxoethyl)-2-(3-(6-isopropoxypyridin-3-yl)-1H-indazol-5-yl)-2,7-diazaspiro[4.4]nonan-1-one] | ≤ 50 | – |
| CCNc1n[nH]c2ccc(N3CC[C@]4(CCN(CC(=O)N5CC=C(c6ccc(-c7ncn(C)n7)cc6)CC5)C4)C3=O)cc12 [Example 53, (S)-2-(3-(Ethylamino)-1H-indazol-5-yl)-7-(2-(4-(4-(1-methyl-1H-1,2,4-triazol-3-yl)phenyl)-3,6-dihydropyridin-1(2H)-yl)-2-oxoethyl)-2,7-diazaspiro[4.4]nonan-1-one] | 50 to 250 | – |
| Cc1cc(-c2n[nH]c3ccc(N4CC[C@@]5(CCN(CC(=O)N6CC=C(c7ccc(-c8ncn(C)n8)cc7)CC6)C5)C4=O)cc23)ccn1 [Example 9, (R)-7-(2-(4-(4-(1-Methyl-1H-1,2,4-triazol-3-yl)phenyl)-3,6-dihydropyridin-1(2H)-yl)-2-oxoethyl)-2-(3-(2-methylpyridin-4-yl)-1H-indazol-5-yl)-2,7-diazaspiro[4.4]nonan-1-one] | ≤ 50 | 50 to 250 |
| Cn1cnc(-c2ccc(C3=CCN(C(=O)CN4CC[C@]5(CCN(c6ccc7[nH]nc(C(F)F)c7c6)C5=O)C4)CC3)cc2)n1 [Example 52, (S)-2-(3-(Difluoromethyl)-1H-indazol-5-yl)-7-(2-(4-(4-(1-methyl-1H-1,2,4-triazol-3-yl)phenyl)-3,6-dihydropyridin-1(2H)-yl)-2-oxoethyl)-2,7-diazaspiro[4.4]nonan-1-one] | ≤ 50 | – |
| Cn1cnc(-c2ccc(C3=CCN(C(=O)CN4CC[C@]5(CCN(c6ccc7[nH]nc(-c8ccc(S(C)(=O)=O)cc8)c7c6)C5=O)C4)CC3)cc2)n1 [Example 58, (S)-7-(2-(4-(4-(1-Methyl-1H-1,2,4-triazol-3-yl)phenyl)-3,6-dihydropyridin-1(2H)-yl)-2-oxoethyl)-2-(3-(4-(methylsulfonyl)phenyl)-1H-indazol-5-yl)-2,7-diazaspiro[4.4]nonan-1-one] | ≤ 50 | – |
| COCCn1cnc(-c2ccc(C3=CCN(C(=O)CN4CC[C@]5(CCN(c6ccc7[nH]nc(-c8ccc(OC(C)C)nc8)c7c6)C5=O)C4)CC3)cc2)n1 [Example 49, (S)-2-(3-(6-Isopropoxypyridin-3-yl)-1H-indazol-5-yl)-7-(2-(4-(4-(1-(2-methoxyethyl)-1H-1,2,4-triazol-3-yl)phenyl)-3,6-dihydropyridin-1(2H)-yl)-2-oxoethyl)-2,7-diazaspiro[4.4]nonan-1-one] | ≤ 50 | – |
| Cn1cnc(-c2ccc(C3=CCN(C(=O)CN4CC[C@]5(CCN(c6ccc7[nH]nc(C#N)c7c6)C5=O)C4)CC3)cc2)n1 [Example 51, (S)-5-(7-(2-(4-(4-(1-Methyl-1H-1,2,4-triazol-3-yl)phenyl)-3,6-dihydropyridin-1(2H)-yl)-2-oxoethyl)-1-oxo-2,7-diazaspiro[4.4]nonan-2-yl)-1H-indazole-3-carbonitrile] | ≤ 50 | – |
| Cn1cnc(-c2ccc(N3CCN(C(=O)CN4CC[C@]5(CCN(c6ccc7[nH]nc(C8CC8)c7c6)C5=O)C4)CC3)cc2)n1 [Example 44, (S)-2-(3-Cyclopropyl-1H-indazol-5-yl)-7-(2-(4-(4-(1-methyl-1H-1,2,4-triazol-3-yl)phenyl)piperazin-1-yl)-2-oxoethyl)-2,7-diazaspiro[4.4]nonan-1-one] | 50 to 250 | – |

More lines, now with the values ahead:

| IC50 (Activated ERK2) [nM] | IC50 (Activated ERK1) [nM] | Compound |
| --- | --- | --- |
| ≤ 50 | ≤ 50 | CC(C)Oc1ccc(-c2n[nH]c3ccc(N4CCC5(CCN(CC(=O)N6CCN(c7ccc(-c8ncn(C)n8)cc7)CC6)C5)C4=O)cc23)cn1 (stereo not drawn) [Example 3, 2-(3-(6-Isopropoxypyridin-3-yl)-1H-indazol-5-yl)-7-(2-(4-(4-(1-methyl-1H-1,2,4-triazol-3-yl)phenyl)piperazin-1-yl)-2-oxoethyl)-2,7-diazaspiro[4.4]nonan-1-one] |
| ≤ 50 | ≤ 50 | CCNc1nnc(-c2ccc(C3=CCN(C(=O)CN4CC[C@]5(CCN(c6ccc7[nH]nc(-c8ccc(OC(C)C)nc8)c7c6)C5=O)C4)CC3)cc2)s1 [Example 19, (S)-7-(2-(4-(4-(5-(Ethylamino)-1,3,4-thiadiazol-2-yl)phenyl)-3,6-dihydropyridin-1(2H)-yl)-2-oxoethyl)-2-(3-(6-isopropoxypyridin-3-yl)-1H-indazol-5-yl)-2,7-diazaspiro[4.4]nonan-1-one] |
| ≤ 50 | – | Cc1noc(-c2ccc(C3=CCN(C(=O)CN4CC[C@]5(CCN(c6ccc7[nH]nc(-c8ccc(OC(C)C)nc8)c7c6)C5=O)C4)CC3)cc2)n1 [Example 54, (S)-2-(3-(6-Isopropoxypyridin-3-yl)-1H-indazol-5-yl)-7-(2-(4-(4-(3-methyl-1,2,4-oxadiazol-5-yl)phenyl)-3,6-dihydropyridin-1(2H)-yl)-2-oxoethyl)-2,7-diazaspiro[4.4]nonan-1-one] |
| ≤ 50 | – | CC(C)Oc1ccc(-c2n[nH]c3ccc(N4CC[C@]5(CCN(CC(=O)N6CC=C(c7ccc(-c8ncn(C)n8)c(F)c7)CC6)C5)C4=O)cc23)cn1 [Example 56, (S)-7-(2-(4-(3-Fluoro-4-(1-methyl-1H-1,2,4-triazol-3-yl)phenyl)-3,6-dihydropyridin-1(2H)-yl)-2-oxoethyl)-2-(3-(6-isopropoxypyridin-3-yl)-1H-indazol-5-yl)-2,7-diazaspiro[4.4]nonan-1-one] |
| ≤ 50 | ≤ 50 | CC(C)Oc1ccc(-c2n[nH]c3ccc(N4CC[C@]5(CCN(CC(=O)N6CC=C(c7ccc(-n8ccnn8)cc7)CC6)C5)C4=O)cc23)cn1 [Example 14, (S)-7-(2-(4-(4-(1H-1,2,3-Triazol-1-yl)phenyl)-3,6-dihydropyridin-1(2H)-yl)-2-oxoethyl)-2-(3-(6-isopropoxypyridin-3-yl)-1H-indazol-5-yl)-2,7-diazaspiro[4.4]nonan-1-one] |
| ≥ 250 | ≥ 250 | CC(C)Oc1ccc(-c2n[nH]c3ccc(N4CCC5(CCN(Cc6ccccc6)C5)C4=O)cc23)cn1 (stereo not drawn) [Example 21, 7-Benzyl-2-(3-(6-isopropoxypyridin-3-yl)-1H-indazol-5-yl)-2,7-diazaspiro[4.4]nonan-1-one] |
| ≤ 50 | – | CC(C)Oc1ccc(-c2n[nH]c3ccc(N4CC[C@]5(CCN(CC(=O)N6CC=C(c7ccc(-c8ncn(CCO)n8)cc7)CC6)C5)C4=O)cc23)cn1 [Example 47, (S)-7-(2-(4-(4-(1-(2-Hydroxyethyl)-1H-1,2,4-triazol-3-yl)phenyl)-3,6-dihydropyridin-1(2H)-yl)-2-oxoethyl)-2-(3-(6-isopropoxypyridin-3-yl)-1H-indazol-5-yl)-2,7-diazaspiro[4.4]nonan-1-one] |
| ≤ 50 | – | CC(C)Oc1ccc(-c2n[nH]c3ccc(N4CC[C@]5(CCN(CC(=O)N6CC=C(c7ccc(-c8ncn(C)n8)cc7F)CC6)C5)C4=O)cc23)cn1 [Example 55, (S)-7-(2-(4-(2-Fluoro-4-(1-methyl-1H-1,2,4-triazol-3-yl)phenyl)-3,6-dihydropyridin-1(2H)-yl)-2-oxoethyl)-2-(3-(6-isopropoxypyridin-3-yl)-1H-indazol-5-yl)-2,7-diazaspiro[4.4]nonan-1-one] |
| ≤ 50 | – | CCn1cnc(-c2ccc(C3=CCN(C(=O)CN4CC[C@]5(CCN(c6ccc7[nH]nc(-c8ccc(OC(C)C)nc8)c7c6)C5=O)C4)CC3)cc2)n1 [Example 46, (S)-7-(2-(4-(4-(1-Ethyl-1H-1,2,4-triazol-3-yl)phenyl)-3,6-dihydropyridin-1(2H)-yl)-2-oxoethyl)-2-(3-(6-isopropoxypyridin-3-yl)-1H-indazol-5-yl)-2,7-diazaspiro[4.4]nonan-1-one] |
